From US20050175692A1, “Pharmaceutical formulation comprising melatonin” (Neurim Pharmaceuticals (1991) ltd., priority 2002, published 2005)

Columns and labels:
volunteers [1] = test: Wake EEG; type: in vivo, human
Description: (§1) A battery of performance tests and driving skill tests were given to the patients at pre-selected intervals after the administration of the tablet. These included psychomotor tasks for reaction test, vigilance and co-ordination: ARCI 49, Grooved Pegboard, Rivermead story, picture presentation, simple reaction time, digit vigilance task, choice reaction time, delayed picture recognition, visual tracking, driving simulator: highway driving and wake-EEG.

volunteers [2] = test: Rivermead story (immediate and delayed recall); type: in vivo, human; conditions: compared to placebo and sustained release melatonin 2 mg
Description: as §1

[3] = single evening tablet; melatonin sustained release 2 mg, zolpidem 10 mg
Protocol: Method. The pharmacokinetics of melatonin (2 mg sustained release formulation), zolpidem (10 mg) and their combination were assessed in 16 volunteers (12 males and 4 females).
Blood samples were withdrawn from the subjects at pre-selected intervals after the administration of the tablets.

volunteers [4] = test: Driving simulator: highway driving; type: in vivo, human; conditions: 2 hours post-dosing
Description: as §1

volunteers [5] = test: ARCI 49 (MBG, LSD, PCAG, BG scales); type: in vivo, human
Description: as §1

volunteers [6] = test: Cognitive Drug Research tests (attention, episodic secondary memory, motor co-ordination); type: in vivo, human
Description: as §1

volunteers [7] = test: Treatment-emergent adverse events in the psychomotor/driving study; design: species or system human; conditions: in vivo
Description: as §1

volunteers [8] = test: Grooved Pegboard; type: in vivo, human; conditions: 1 and 4 hours post-dosing, compared to baseline, placebo and sustained release melatonin 2 mg
Description: as §1

Cc1ccc(-c2nc3ccc(C)cn3c2CC(=O)N(C)C)cc1 [Zolpidem, N,N,6-trimethyl-2-p-toyl-imidazo[1,2,-a]pyridine-3-acetamide L-(+)-tartrate (2:1)]
Alpha activity in driving conditions vs sustained release melatonin alone (volunteers [1]; driving conditions, not different vs placebo): significantly increased
Theta rhythm on frontal leads vs placebo (volunteers [1]; in vivo): increased
Alpha activity in resting conditions vs placebo (volunteers [1]; resting conditions): decreases in alpha
Memory efficiency, both recalls (immediate and delayed) (volunteers [2]): decreased
Time to maximum, zolpidem in serum, Mean (SD) [3]: 1.8 (1.2) h
maximum concentration, zolpidem in serum, Mean (SD) [3]: 0.22 (0.11) mcg/ml
Number of collisions (volunteers [4]): increased number of collisions
Sedative effect (increase of the PCAG scale) vs placebo (volunteers [5]; first 4 hours post-dosing): strong significant sedative effect
Time after administration at which PCAG sedative effect reached the maximum (volunteers [5]; in vivo): about 4 hour
Cognitive effects compared to placebo (volunteers [6]; dosed alone, melatonin SR 2 mg or zolpidem 10 mg): several acute impairments
Time post-dosing by which acute impairments were resolved (volunteers [6]; zolpidem 10 mg alone vs placebo): ≤ 12.5 h
Incidence of somnolence compared with melatonin alone and placebo (volunteers [7]): clearly increased
Duration of task execution (ipsi and contra lateral) (volunteers [8]): significant increase
